In one data set the test system is A-549. Kind of data set: Antiproliferative assay (MTT). The format is cell-based. The settings on record: Homo sapiens, A549, A-549 (lung), read-out: Antiproliferative activity IC50 ± SEM, A-549. From the text: (§1) The MTT test was employed for this investigation ([Hisham et al., 2022]; [El-Sherief et al., 2019]; [Ramadan et al., 2020]). Table 2 presents the four cancer cell lines’ median inhibitory concentration (IC50) and GI50 (average IC50) values.
(§2) The MTT test was employed for this investigation ([Hisham et al., 2022]; [El-Sherief et al., 2019]; [Ramadan et al., 2020]). The IC50 values were derived from dose-response tests. The reported data are derived from at least two independent studies, each comprising three replicates per concentration. See Supplementary Material A1 for more details.
(§3) (in 0.1% DMSO) were added (in 200 μL medium to yield a final concentration of 0.1% v/v) to the wells of plates. A single compound was designated with four wells followed by incubation of plates for 96h at 37°C. After incubation, medium was removed completely from the plates followed by addition of MTT (0.4 mg/mL in medium) to each well and subsequent incubation of plates for 3h. MTT (along with the medium) was removed and DMSO (150μL) was added to each well of the culture plates, followed by vertexing and subsequent measurement of absorbance (at 540 nm) using microplate reader. The data are shown as percentage inhibition of proliferation in comparison with controls containing 0.1% DMSO.
(§4) 4.2.1.2. Assay for antiproliferative effect […]
(§5) (10%) and 1 µg/mL each of aprotinin, leupeptin and pepstatin for 120 min. The purification was performed either at 4 °C or on ice. To record autophosphorylation level, EGFR kinase assay was carried out on the basis of DELFIA/Time-Resolved Fluorometry. The compounds were first
(§6) (1 picture or pasted object on this page, not shown here)
In the case of `COc1ccc(CSc2nc(-c3ccc(Cl)cc3)cc(-c3ccc(OC)cc3)n2)cc1` [Compound 15, 2-(4-Methoxybenzylthio)-4-(4-chlorophenyl)-6-(4-methoxyphenyl)pyrimidine], the IC50 – broadly, the midpoint of a concentration-inhibition curve – is 79 ± 7 nM.

The next data set deals with MCF-7. Kind of data set: Antiproliferative assay (MTT). The format is cell-based. The settings on record: Homo sapiens, MCF7, MCF-7 (breast), read-out: Antiproliferative activity IC50 ± SEM, MCF-7.
From the text: as §1, §2, §3, §4, §5, §6
With `COc1ccc(CSc2nc(-c3ccc(Cl)cc3)cc(-c3ccc(OC)cc3)n2)cc1` [Compound 15, 2-(4-Methoxybenzylthio)-4-(4-chlorophenyl)-6-(4-methoxyphenyl)pyrimidine], the IC50 came to 82 ± 7 nM.

For the next data set, the system named is Panc-1. Description: Antiproliferative assay (MTT). The format is cell-based. The settings on record: Homo sapiens, Panc-1 (pancreatic), read-out: Antiproliferative activity IC50 ± SEM, Panc-1.
From the text: as §1, §2, §3, §4, §5, §6
For the compound `COc1ccc(CSc2nc(-c3ccc(Cl)cc3)cc(-c3ccc(OC)cc3)n2)cc1` [Compound 15, 2-(4-Methoxybenzylthio)-4-(4-chlorophenyl)-6-(4-methoxyphenyl)pyrimidine], the IC50 was determined as 80 ± 7 nM.

A further data set relates to HT-29. Kind of data set: Antiproliferative assay (MTT). The class given is cell-based. Particulars: Homo sapiens, HT-29 (colon), read-out: Antiproliferative activity IC50 ± SEM, HT-29.
From the text: as §1, §2, §3, §4, §5, §6
For `COc1ccc(CSc2nc(-c3ccc(Cl)cc3)cc(-c3ccc(OC)cc3)n2)cc1` [Compound 15, 2-(4-Methoxybenzylthio)-4-(4-chlorophenyl)-6-(4-methoxyphenyl)pyrimidine], the IC50 was 80 ± 7 nM.

In another data set the test system is DU-145. Kind of data set: NCI-60 single-dose screen. The format is cell-based. The settings on record: Homo sapiens, single dose 10 µM, '-' = no inhibition, read-out: % Growth Inhibition. The procedure: (§7) The National Cancer Institute’s Developmental Therapeutic Program (www.dtp.nci.nih.gov) has tested compounds 9–29 (except compounds 21 and 22) against 60 cancer cell lines from nine types (leukemia, lung, colon, CNS, melanoma, ovarian, renal, prostate, and breast cancer) at a single dose (10 μM) ([El-Sherief et al., 2018]). […] The most sensitive cells included leukemia (SR, K-562, and MOLT-4), lung (NCI-H522, […], and EKVX), breast (MCF-7 and T-47D), colon (HCT-15 and HT-29), and ovarian (NCI/ADR-RES).
(§8) The National Cancer Institute’s Developmental Therapeutic Program (www.dtp.nci.nih.gov) evaluated compounds 9–29 (excluding 21 and 22) against 60 cancer cell lines from nine categories (leukemia, lung, colon, CNS, melanoma, ovarian, renal, prostate, and breast cancer) at a single dose (10 μM) ([El-Sherief et al., 2018]). See Supplementary Material A1 for more details.
Regarding `COc1ccc(CSc2nc(-c3ccc(Cl)cc3)cc(-c3ccc(OC)cc3)n2)cc1` [Compound 15, 2-(4-Methoxybenzylthio)-4-(4-chlorophenyl)-6-(4-methoxyphenyl)pyrimidine], the inhibition (usually the drop in the measured response relative to a control, in per cent) at 10 µM amounted to 0.47%.

For a further data set, the system named is OVCAR-3. Description: NCI-60 single-dose screen. Particulars: Homo sapiens, single dose 10 µM, '-' = no inhibition, read-out: % Growth Inhibition. The format is cell-based. On the procedure:
as §7, §8
Turning to `COc1ccc(CSc2nc(-c3ccc(Cl)cc3)cc(-c3ccc(OC)cc3)n2)cc1` [Compound 15, 2-(4-Methoxybenzylthio)-4-(4-chlorophenyl)-6-(4-methoxyphenyl)pyrimidine], the inhibition at 10 µM was found to be 5.05%.

In the next data set the test system is SF-295. Kind of data set: NCI-60 single-dose screen. The class given is cell-based. Particulars: Homo sapiens, single dose 10 µM, '-' = no inhibition, read-out: % Growth Inhibition. The procedure:
as §7, §8
Regarding `COc1ccc(CSc2nc(-c3ccc(Cl)cc3)cc(-c3ccc(OC)cc3)n2)cc1` [Compound 15, 2-(4-Methoxybenzylthio)-4-(4-chlorophenyl)-6-(4-methoxyphenyl)pyrimidine], the inhibition at 10 µM was below 0%.

A further data set deals with HCT-116. Description: NCI-60 single-dose screen. The format is cell-based. The settings on record: Homo sapiens, single dose 10 µM, '-' = no inhibition, read-out: % Growth Inhibition. The procedure:
as §7, §8
In the case of `COc1ccc(CSc2nc(-c3ccc(Cl)cc3)cc(-c3ccc(OC)cc3)n2)cc1` [Compound 15, 2-(4-Methoxybenzylthio)-4-(4-chlorophenyl)-6-(4-methoxyphenyl)pyrimidine], the inhibition at 10 µM was below 0%.

The next data set has as its system HS 578T. Description: NCI-60 single-dose screen. The format is cell-based. Particulars: Homo sapiens, single dose 10 µM, '-' = no inhibition, read-out: % Growth Inhibition. On the procedure: as §7, §8
`COc1ccc(CSc2nc(-c3ccc(Cl)cc3)cc(-c3ccc(OC)cc3)n2)cc1` [Compound 15, 2-(4-Methoxybenzylthio)-4-(4-chlorophenyl)-6-(4-methoxyphenyl)pyrimidine]: the inhibition at 10 µM was found to be 9.27%.

Another data set relates to MDA-MB-435. Description: NCI-60 single-dose screen. The format is cell-based. Particulars: Homo sapiens, single dose 10 µM, '-' = no inhibition, read-out: % Growth Inhibition. On the procedure:
as §7, §8
In the case of `COc1ccc(CSc2nc(-c3ccc(Cl)cc3)cc(-c3ccc(OC)cc3)n2)cc1` [Compound 15, 2-(4-Methoxybenzylthio)-4-(4-chlorophenyl)-6-(4-methoxyphenyl)pyrimidine], the inhibition at 10 µM was 2.38%.

A further data set has as its system CAKI-1. Description: NCI-60 single-dose screen. The format is cell-based. Particulars: Homo sapiens, single dose 10 µM, '-' = no inhibition, read-out: % Growth Inhibition. The procedure:
as §7, §8
`COc1ccc(CSc2nc(-c3ccc(Cl)cc3)cc(-c3ccc(OC)cc3)n2)cc1` [Compound 15, 2-(4-Methoxybenzylthio)-4-(4-chlorophenyl)-6-(4-methoxyphenyl)pyrimidine]: the inhibition at 10 µM was below 0%.

Another data set concerns HOP-92. Kind of data set: NCI-60 single-dose screen. The class given is cell-based. Particulars: Homo sapiens, single dose 10 µM, '-' = no inhibition, read-out: % Growth Inhibition. On the procedure: as §7, §8
Regarding `COc1ccc(CSc2nc(-c3ccc(Cl)cc3)cc(-c3ccc(OC)cc3)n2)cc1` [Compound 15, 2-(4-Methoxybenzylthio)-4-(4-chlorophenyl)-6-(4-methoxyphenyl)pyrimidine], the inhibition at 10 µM was below 0%.

The next data set deals with SW-620. Kind of data set: NCI-60 single-dose screen. The class given is cell-based. The settings on record: Homo sapiens, single dose 10 µM, '-' = no inhibition, read-out: % Growth Inhibition. The procedure:
as §7, §8
For the compound `COc1ccc(CSc2nc(-c3ccc(Cl)cc3)cc(-c3ccc(OC)cc3)n2)cc1` [Compound 15, 2-(4-Methoxybenzylthio)-4-(4-chlorophenyl)-6-(4-methoxyphenyl)pyrimidine], the inhibition at 10 µM was below 0%.

The test system of another data set is SN12C. Kind of data set: NCI-60 single-dose screen. The class given is cell-based. Particulars: Homo sapiens, single dose 10 µM, '-' = no inhibition, read-out: % Growth Inhibition. On the procedure: as §7, §8
With `COc1ccc(CSc2nc(-c3ccc(Cl)cc3)cc(-c3ccc(OC)cc3)n2)cc1` [Compound 15, 2-(4-Methoxybenzylthio)-4-(4-chlorophenyl)-6-(4-methoxyphenyl)pyrimidine], the inhibition at 10 µM is 11.3%.

System in the next data set: not listed separately
Kind of data set: Cell viability assay (MTT) on normal cells. The format is cell-based. The settings on record: human, MCF-10A normal mammary gland epithelial cells, 4 days incubation. On the procedure:
This experiment examines the impact of the newly developed compounds 9–29 on normal cell lines to assess their safety level. The vitality of the investigated compounds was assessed using the MCF-10 A cell line, a normal human mammary gland epithelial cell line. Following 4 days of incubation on MCF-10 A cells with each examined compound at a concentration of 50 μM, the vitality of the cells was assessed using the MTT test ([Mahmoud et al., 2022]; [Mekheimer et al., 2022]).
This experiment examines the impact of the newly developed compounds 9–29 on normal cell lines to assess their safety level. The viability of 9–29 was assessed using the MCF-10 A cell line, a normal human mammary gland epithelial cell line. Following 4 days of incubation on MCF-10 A cells with each examined compound at a concentration of 50 μM, the vitality of the cells was assessed using the MTT test ([Mahmoud et al., 2022]; [Mekheimer et al., 2022]). Refer to Supplementary Material A1 for more details. […]
4.2. Biological evaluation
4.2.1. Cytotoxic activity using MTT Assay and evaluation of IC50
MTT assay was carried out to study the effect of compounds on mammary epithelial cells (MCF-10A). The medium in which cells were propagated contained Dulbecco's modified Eagle's medium (DMEM)/ Ham's F-12 medium (1:1) supplemented with epidermal growth factor (20 ng/mL), hydrocortisone (500 ng/mL), insulin (10 μg/mL), 2 mM glutamine and 10% foetal calf serum.
as §3, with “After every 2-3 days, the cells were passaged using trypsin ethylenediamine tetra acetic acid (EDTA). The cells were seeded at a density of 10^4 cells mL-1 in flat-bottomed culture plates containing 96 wells each. After 24 h, medium was removed from the plates and the compounds in (in 0.1%” for “(in 0.1%”, “0.1% DMSO. […]” for “0.1% DMSO.”
Regarding `COc1ccc(CSc2nc(-c3ccc(Cl)cc3)cc(-c3ccc(OC)cc3)n2)cc1` [Compound 15, 2-(4-Methoxybenzylthio)-4-(4-chlorophenyl)-6-(4-methoxyphenyl)pyrimidine], the viability (usually a read-out of living cells in per cent, often relative to untreated cells) at 4 days, 50 µM worked out at 91%.

System in the next data set: not given
Assay: not given
Conditions: not given
Take `COc1ccc(CSc2nc(-c3ccc(Cl)cc3)cc(-c3ccc(OC)cc3)n2)cc1` [Compound 15, 2-(4-Methoxybenzylthio)-4-(4-chlorophenyl)-6-(4-methoxyphenyl)pyrimidine]: the melting point – broadly, the temperature of the solid-liquid transition – is 278 to 280 °C.

Source of the values: publication PMC11576293, “New series of 4,6-diaryl pyrimidines: facile synthesis and antiproliferative activity as dual EGFR/VEGFR-2 inhibitors” (Frontiers in Chemistry, 2024).
